{"source": "patent US5204328A", "about": "“Peptides having atrial natriuretic factor activity” (Merck & Co., Inc., priority 1991, dated 1993)", "tested_on": "Rabbit Renal Artery", "assay": "Vasorelaxant relative potency, rabbit renal artery", "type": "cell-based", "note": "Where a SMILES comes first, the peptide text is derived from it. Bridges are numbered along the chain shown (N, C = ends).", "data": [{"smiles": "CC[C@H](C)[C@@H]1NC(=O)[C@H](CCCNC(=N)N)NC(=O)[C@H](CC(=O)O)NC(=O)[C@H]([C@@H](C)CC)NC(=O)[C@H](CCCNC(=N)N)NC(=O)CNC(=O)CNC(=O)[C@H](Cc2ccccc2)NC(=O)[C@@H](N)CSSC[C@@H](C(=O)N[C@@H](CC(N)=O)C(=O)N[C@@H](CO)C(=O)N2CCC[C@H]2C(=O)N[C@@H](CCCNC(=N)N)C(N)=O)NC(=O)CNC(=O)[C@H](CC(C)C)NC(=O)CNC(=O)[C@H](CO)NC(=O)[C@H](CCC(N)=O)NC(=O)[C@H](C)NC(=O)CNC1=O", "note": "[Structure 23, PROLINE-26 ANF (7-27) amide] (H-CFGGRIDRIGAQSGLGCNSPR-NH2; disulfide 1-17)", "values": [{"measurement": "Vasorelaxant Relative Potency Rabbit Renal Artery", "setting": "Table 1, (3-28) analogs, relative to sequence I = 1", "result": 3.3}]}, {"smiles": "CC[C@H](C)[C@@H]1NC(=O)[C@H](CCCNC(=N)N)NC(=O)[C@H](CC(=O)O)NC(=O)[C@H]([C@@H](C)CC)NC(=O)[C@H](CCCNC(=N)N)NC(=O)CNC(=O)CNC(=O)[C@H](Cc2ccccc2)NC(=O)[C@@H](N)CSSC[C@@H](C(=O)N[C@@H](CC(N)=O)C(=O)N[C@@H](CO)C(=O)N2CCC[C@H]2C(=O)N[C@@H](CCCNC(=N)N)C(N)=O)NC(=O)CNC(=O)[C@H](CC(C)C)NC(=O)CNC(=O)[C@H](CO)NC(=O)[C@H](CCC(N)=O)NC(=O)[C@H](C)NC(=O)CNC1=O", "note": "[Structure 23] (H-CFGGRIDRIGAQSGLGCNSPR-NH2; disulfide 1-17)", "values": [{"measurement": "Vasorelaxant Relative Potency Rabbit Renal Artery", "setting": "Table 2, (7-27)-NH2 analogs, relative to I (7-27)-NH2 = 1", "result": 3.86}]}]}
